pEC50: −log10 of the molar value.
Assays:
A2780 = experiment: Cytotoxicity against human A2780 cells assessed as reduction in cell viability incubated for 72 hrs by SRB assay; format: functional, cell-based; details: for pEC50: Homo sapiens, A2780, 72 h, read-out: EC50; for EC50: a2780
FaDu = experiment: Cytotoxicity against human FaDu cells assessed as reduction in cell viability incubated for 72 hrs by SRB assay; format: functional, cell-based; details: for pEC50: Homo sapiens, FaDu, 72 h, read-out: EC50; for EC50: fadu
A-375 = experiment: Cytotoxicity against human A-375 cells assessed as reduction in cell viability incubated for 72 hrs by SRB assay; format: functional, cell-based; details: for pEC50: Homo sapiens, A-375, 72 h, read-out: EC50; for EC50: a-375
NIH3T3 = experiment: Cytotoxicity against mouse NIH3T3 cells assessed as reduction in cell viability incubated for 72 hrs by SRB assay; format: cell-based; details: for pEC50: Mus musculus, NIH3T3, 72 h, read-out: EC50; for EC50: nih3t3
MCF7 = experiment: Cytotoxicity against human MCF7 cells assessed as reduction in cell viability incubated for 72 hrs by SRB assay; format: functional, cell-based; details: for pEC50: Homo sapiens, MCF7, 72 h, read-out: EC50; for EC50: mcf7
HT-29 = experiment: Cytotoxicity against human HT-29 cells assessed as reduction in cell viability incubated for 72 hrs by SRB assay; format: functional, cell-based; details: for pEC50: Homo sapiens, HT-29, 72 h, read-out: EC50; for EC50: ht-29
[1] = Selectivity ratio of EC50 for mouse NIH3T3 cells to EC50 for human FaDu cells
[2] = Selectivity ratio of EC50 for mouse NIH3T3 cells to EC50 for human A2780 cells; format: toxicity; details: NIH3T3 cells versus A2780 cells, read-out: Ratio EC50
[3] = Selectivity ratio of EC50 for mouse NIH3T3 cells to EC50 for human HT-29 cells; format: toxicity; details: NIH3T3 cells versus HT-29 cells, read-out: Ratio EC50
[4] = Selectivity ratio of EC50 for mouse NIH3T3 cells to EC50 for human MCF7 cells; format: toxicity; details: NIH3T3 cells versus MCF7 cells, read-out: Ratio EC50
[5] = Selectivity ratio of EC50 for mouse NIH3T3 cells to EC50 for human A375 cells; format: toxicity; details: NIH3T3 cells versus A375 cells, read-out: Ratio EC50

| SMILES | pEC50 (A2780) | pEC50 (FaDu) | pEC50 (A-375) | pEC50 (NIH3T3) | pEC50 (MCF7) | pEC50 (HT-29) | Ratio EC50 [1] | selectivity ratio [2] | selectivity ratio [3] | selectivity ratio [4] | selectivity ratio [5] | EC50 (A2780) | EC50 (FaDu) | EC50 (A-375) | EC50 (NIH3T3) | EC50 (MCF7) | EC50 (HT-29) |
| --- | --- | --- | --- | --- | --- | --- | --- | --- | --- | --- | --- | --- | --- | --- | --- | --- | --- |
| CC(=O)[C@@H]1CC[C@]2(C(=O)O)CC[C@]3(C)[C@H](CC[C@@H]4[C@@]5(C)C=C(O)C(=O)C(C)(C)[C@@H]5CC[C@]43C)[C@@H]12 | 4.69 | < 4.52 | < 4.52 | < 4.52 | 4.61 | < 4.52 |  |  |  |  |  |  |  |  |  |  |  |
| CC(=O)O[C@H]1C[C@]2(C)[C@H]3CC[C@@H]4[C@H]5[C@H](C(C)=O)CC[C@]5(C(=O)NCc5ccccc5)CC[C@@]4(C)[C@]3(C)CC[C@H]2C(C)(C)[C@H]1OC(C)=O | 5.63 | 5.25 | 5.54 | < 4.52 | 5.28 | 5.14 | 5.4 | 12.7 | 4.2 | 5.8 |  |  |  |  |  |  |  |
| CC(=O)O[C@H]1CC[C@]2(C)[C@H]3CC[C@@H]4[C@H]5[C@H](C(C)=O)CC[C@]5(C(=O)O)CC[C@@]4(C)[C@]3(C)CC[C@H]2C1(C)C | < 4.52 | < 4.52 | < 4.52 | < 4.52 | < 4.52 | < 4.52 |  |  |  |  |  |  |  |  |  |  |  |
| C=C(C)[C@@H]1CC[C@]2(C(=O)Nc3cccc4ncccc34)CC[C@]3(C)[C@H](CC[C@@H]4[C@@]5(C)CC[C@H](OC(C)=O)C(C)(C)[C@@H]5CC[C@]43C)[C@@H]12 | 5.29 | 5.29 | 5.52 | < 4.52 | 4.92 | < 4.52 | 5.8 | 5.9 | 1 | 2.5 |  |  |  |  |  |  |  |
| CC(=O)O[C@H]1CC[C@]2(C)[C@H]3CC[C@@H]4[C@H]5[C@H](C(C)=O)CC[C@]5(C(=O)Nc5cncc6ccccc56)CC[C@@]4(C)[C@]3(C)CC[C@H]2C1(C)C | 5.11 | 5.12 | 5.25 | < 4.52 | 5.03 | < 4.52 | 3.9 | 3.8 | 1 | 3.2 |  |  |  |  |  |  |  |
| C=C(C)[C@@H]1CC[C@]2(C(=O)NCc3ccccc3)CC[C@]3(C)[C@H](CC[C@@H]4[C@@]5(C)CC[C@H](OC(C)=O)C(C)(C)[C@@H]5CC[C@]43C)[C@@H]12 | 5.20 | 5.02 | 5.39 | < 4.52 | 4.57 | < 4.52 | 3.1 | 4.8 | 1 | 1.1 |  |  |  |  |  |  |  |
| C=C(C)[C@@H]1CC[C@]2(C(=O)O)CC[C@]3(C)[C@H](CC[C@@H]4[C@@]5(C)CC[C@H](O)C(C)(C)[C@@H]5CC[C@]43C)[C@@H]12 [BETULINIC ACID] | < 4.52 | < 4.52 | < 4.52 | < 4.52 | < 4.52 | < 4.52 |  |  |  |  |  |  |  |  |  |  |  |
| C=C(C)[C@@H]1CC[C@]2(C(=O)O)CC[C@]3(C)[C@H](CC[C@@H]4[C@@]5(C)C[C@H](OC(C)=O)[C@H](OC(C)=O)C(C)(C)[C@@H]5CC[C@]43C)[C@@H]12 | 5.06 | 4.87 | 4.80 | 4.85 | 4.95 | 4.76 | 1 | 1.6 | 0.8 | 1.3 | 0.9 |  |  |  |  |  |  |
| C=C(C)[C@@H]1CC[C@]2(C(=O)O)CC[C@]3(C)[C@H](CC[C@@H]4[C@@]5(C)CCC(=O)C(C)(C)[C@@H]5CC[C@]43C)[C@@H]12 [BETUNOLIC ACID] | 5.33 | 4.76 | 4.84 | 4.71 | 4.92 | 4.73 |  |  |  |  |  |  |  |  |  |  |  |
| C=C(C)[C@@H]1CC[C@]2(C(=O)Nc3cncc4ccccc34)CC[C@]3(C)[C@H](CC[C@@H]4[C@@]5(C)C[C@H](OC(C)=O)[C@H](OC(C)=O)C(C)(C)[C@@H]5CC[C@]43C)[C@@H]12 | 5.32 | 5.40 | 5.48 | < 4.52 | 5.13 | < 4.82 | 7.5 | 6.3 | 2 | 4.1 |  |  |  |  |  |  |  |
| CC(=O)[C@@H]1CC[C@]2(C(=O)O)CC[C@]3(C)[C@H](CC[C@@H]4[C@@]5(C)CCC(=O)C(C)(C)[C@@H]5CC[C@]43C)[C@@H]12 | < 4.52 | < 4.52 | < 4.52 | < 4.52 | < 4.52 | < 4.52 |  |  |  |  |  |  |  |  |  |  |  |
| CC(=O)O[C@H]1C[C@]2(C)[C@H]3CC[C@@H]4[C@H]5[C@H](C(C)=O)CC[C@]5(C(=O)Nc5cncc6ccccc56)CC[C@@]4(C)[C@]3(C)CC[C@H]2C(C)(C)[C@H]1OC(C)=O | 5.21 | 5.19 | 5.31 | < 4.52 | 5.16 | 4.73 | 4.7 | 4.9 | 1.6 | 4.3 |  |  |  |  |  |  |  |
| COc1cccc2c1C(=O)c1c(O)c3c(c(O)c1C2=O)C[C@@](O)(C(=O)CO)C[C@@H]3O[C@H]1C[C@H](N)[C@H](O)[C@H](C)O1 [DOXORUBICIN] |  |  |  | 5.89 |  | < 4.52 |  |  |  |  |  |  |  |  |  |  |  |
| C=C(C)[C@@H]1CC[C@]2(C(=O)O)CC[C@]3(C)[C@H](CC[C@@H]4[C@@]5(C)C[C@H](O)[C@H](O)C(C)(C)[C@@H]5CC[C@]43C)[C@@H]12 | 4.91 | 4.78 | 4.95 | 4.76 | 4.80 | 4.75 | 1 | 1.4 | 1 | 1.1 | 1.5 |  |  |  |  |  |  |
| C=C(C)[C@@H]1CC[C@]2(C(=O)O)CC[C@]3(C)[C@H](CC[C@@H]4[C@@]5(C)CC[C@H](OC(C)=O)C(C)(C)[C@@H]5CC[C@]43C)[C@@H]12 |  | 5.14 | 4.72 | < 4.52 |  | 4.67 | 4.2 | 1.6 | 1.4 | 2.7 | 1.6 |  |  |  |  |  |  |
| CC(=O)[C@@H]1CC[C@]2(C(=O)O)CC[C@]3(C)[C@H](CC[C@@H]4[C@@]5(C)C[C@H](O)[C@H](O)C(C)(C)[C@@H]5CC[C@]43C)[C@@H]12 | < 4.52 | < 4.52 | < 4.52 | < 4.52 | < 4.52 | < 4.52 |  |  |  |  |  |  |  |  |  |  |  |
| CC(=O)O[C@H]1CC[C@]2(C)[C@H]3CC[C@@H]4[C@H]5[C@H](C(C)=O)CC[C@]5(C(=O)Nc5cccc6ncccc56)CC[C@@]4(C)[C@]3(C)CC[C@H]2C1(C)C | 5.27 | 5.19 | 5.34 | < 4.52 | 5.15 | < 4.52 | 4.7 | 5.6 | 1 | 4.3 |  |  |  |  |  |  |  |
| CC(=O)O[C@H]1C[C@]2(C)[C@H]3CC[C@@H]4[C@H]5[C@H](C(C)=O)CC[C@]5(C(=O)O)CC[C@@]4(C)[C@]3(C)CC[C@H]2C(C)(C)[C@H]1OC(C)=O | < 4.52 | < 4.52 | 4.65 | 5.02 | < 4.52 | < 4.52 | 0.3 | 0.3 | 0.3 | 0.3 | 0.4 |  |  |  |  |  |  |
| CC(=O)O[C@H]1CC[C@]2(C)[C@H]3CC[C@@H]4[C@H]5[C@H](C(C)=O)CC[C@]5(C(=O)NCc5ccccc5)CC[C@@]4(C)[C@]3(C)CC[C@H]2C1(C)C |  |  |  |  |  |  |  |  |  |  |  | Nd(Insoluble) | Nd(Insoluble) | Nd(Insoluble) | Nd(Insoluble) | Nd(Insoluble) | Nd(Insoluble) |
| CC(=O)[C@@H]1CC[C@]2(C(=O)O)CC[C@]3(C)[C@H](CC[C@@H]4[C@@]5(C)CC[C@H](O)C(C)(C)[C@@H]5CC[C@]43C)[C@@H]12 [PLATANIC ACID] | < 4.52 | < 4.52 | < 4.52 | < 4.52 | < 4.52 | < 4.52 |  |  |  |  |  |  |  |  |  |  |  |
| CC(=O)O[C@H]1C[C@]2(C)[C@H]3CC[C@@H]4[C@H]5[C@H](C(C)=O)CC[C@]5(C(=O)Nc5cccc6ncccc56)CC[C@@]4(C)[C@]3(C)CC[C@H]2C(C)(C)[C@H]1OC(C)=O |  |  |  |  |  |  |  |  |  |  |  | Nd(Insoluble) | Nd(Insoluble) | Nd(Insoluble) | Nd(Insoluble) | Nd(Insoluble) | Nd(Insoluble) |
